# Experimental data from US20240109877A1, “PYRIMIDINES FOR DEGRADING BRUTON'S TYROSINE KINASE” (AbbVie Inc., priority 2022, published 2024).
# How the values were obtained:
# [1] = target: BTK protein in human whole blood (Homo sapiens (Human), UniProt Q06187); assay: Btk protein in human whole blood MSD ELISA based assay (Btk degradation); assay type: cell-based; conditions: human whole blood from healthy donors, 6 hours at 37° C., half maximal degradation concentration; read-out: hWB BTK DC50
# Procedure: Btk protein degradation was tested using an Meso Scale Discovery-ELISA system (MSD-ELISA): (1) Test compounds were added to human whole blood; (2) human whole blood cells treated with test compounds were lysed; (3) lysed cells were treated with capture antibody, an antibody to Btk; (4) lysed cells were treated with […] to Btk; and (5) lysed cells were treated with anti-mouse antibody (tagged).
# Specifically, about 80 μl of fresh human whole blood from healthy donors was transferred into each well of a 96-well V-bottom plate (Costar, Cat No.3894). Using a TECANTM D300e Digital Dispenser (Tecan)), 1:4 serially diluted compounds [(8 pt assay) in DMSO solution (final 0.2%) starting at 3 μM top concentration], were added in duplicate. Thereafter, plates were placed in a 37° C. incubator and incubated for 6 hours.
# At the end of incubation, 80 μl of 2× CST lysis buffer (Cell Signaling Technology, Cat No. 9803), prepared from a 10× stock solution, was added per well to lyse the blood. Plates were then sealed with a plate sealer and the samples were frozen overnight at −80° C.
# Total amount of BTK protein remaining in the blood samples after compound treatment was measured using MSD-ELISA. After thawing the frozen plates, blood lysates were mixed thoroughly and transferred to small spot high-bind MSD plates (Meso Scale Discovery, Cat No. L45XB-3) and coated with capturing antibody, rabbit anti-human BTK (D3H5) (Cell Signaling Technology, Cat No. 8547CF). Thereafter, primary detection antibody, mouse anti-human BTK monoclonal antibody, (BD Biosciences, Cat No. 611117) and secondary detection antibody, anti-mouse SULFO-TAG (Meso Scale Discovery, Cat No. R32AC-1) were added. The assay plates were read on an MSD S600 plate reader by the addition of 2× MSD read buffer (Meso Scale Discovery, R92TC-1). All reagent transfers, including blood lysis, was conducted using a Biomed i7 liquid handler. From the dose response curves, DC50 values were calculated by averaging data from duplicate experiments. and Curve fitting was done by non-linear regression using GraphPad Prism. The DC50 values are reported in Table 2 in the hWB BTK DC50 (nM) column The Dmax values represent the maximum amount of BTK degradation observed upon compound treatment compared to DMSO only treated samples. The dMax (%) values are reported in Table 2 in the hWB BTK dMax (%) column.
# [2] = target: Human BTK enzyme, wild-type (Homo sapiens (Human), UniProt Q06187); assay: BTK Screening: Btk kinase activity, electrophoretic mobility shift assay (MSA); assay type: biochemical; conditions: 0.5 nM BTK enzyme, 50 μM ATP, 15 minutes pre-incubation, 3 hours at 25° C.
# Procedure: Btk kinase activity was measured in vitro using an electrophoretic mobility shift assay (MSA). The ability of Btk to phosphorylate a fluorescent peptide substrate (FAM-GEEPLYWSFPAKKK-NH2) was measured. The kinase reactions were assembled in a total volume of 25 μL per well in 384 well plates. The following was added to each well: compound buffer (or control); enzyme buffer; and substrate buffer, as further described below.
# Specifically the following was added: (1) compound buffer or control: 5μL of 5× compound buffer [(5× compound buffer comprised of: 1× Master Buffer, X μM test compound in 5% dimethyl sulfoxide; (2× Master Buffer comprised of 200 mM HEPES, pH7.5, 0.2% BSA, and 0.02% Triton X-100)]; and (2) enzyme buffer: 10 μL of 2.5× enzyme buffer (1× Master Buffer, 12.5 mM MgCl2, 2.5 mM DTT, 25 μM sodium orthovanadate, 25 μM beta-glycerophosphate, and 1.25 nM BTK enzyme). Human BTK enzyme Nanosyn-293HEK, wild-type, available from Nanosyn, Santa Clara, CA). Enzyme and compound were pre-incubated for 15 minutes. Additionally, the following was added: (3) substrate buffer: 10 μL of 2.5× substrate buffer (1× Master Buffer, […], and 2.5 μM of the peptide substrate FAM). Each plate was incubated at 25° C. for 3 hours. The reaction was terminated by adding to each well: 45 μL of 1.55× stop buffer (1× Master Buffer and 31 mM EDTA). The final reaction mixture was as follows: 100 mM HEPES, pH7.5; 0.1% BSA; 0.01% Triton X-100; 1 mM DTT; 5 mM MgCl2; 10 μM sodium orthovanadate; 10 μM beta-glycerophosphate; 50 μM ATP; 1% dimethyl sulfoxide (from compound); 1μM fluorescent peptide substrate and 0.5 nM BTK- enzyme. The terminated reactions were analyzed using a 12 channel LABCHIP® 3000 microfluidic detection instrument (available from Caliper Life Sciences, Waltham, MA). […] As substrate and product peptides were separated, two peaks of fluorescence were observed. Change in the relative fluorescence intensity of the substrate and product peaks was the parameter measured, reflecting enzyme activity. In the presence of an active compound, the ratio between product and substrate was altered. The signal of the product decreased, while the signal of the substrate increased. Capillary electrophoregrams (RDA acquisition files) were analyzed using HTS Well Analyzer software (available from Caliper Life Sciences, Waltham, MA).
# Activity in each sample was determined as the product to sum ratio (PSR): P/(S+P), where P was the peak height of the product peptide and S was the peak height of the substrate peptide. For each compound, enzyme activity was measured at various concentrations (12 concentrations of compound spaced by 3× dilution intervals). Negative control samples (0% inhibition in the absence of an active compound) and positive control samples (100% inhibition, in the presence of 20 mM EDTA) were assembled in replicates of four and were used to calculate % inhibition values for each active compound at each concentration. Percent inhibition (Pinh) was determined using following equation: Pinh=(PSR0%−PSRinh)/(PSR0%−PSR100%)*100, where PSRinh was the product sum ratio in the presence of inhibitor, PSR0% was the average product sum ratio in the absence of active compound and PSR100% was the average product sum ratio in 100%-inhibition control samples.
# The IC50 values of active compounds were determined by 4 parameter sigmoidal dose response model fitting of the inhibition curves (Pinh versus inhibitor concentration) using XLfit® 4 software (IDBS, Boston, MA). The IC50 values are reported in Table 2 in the BTK IC50 (nM) column.
# [3] = target: His-tagged Cereblon/DDB1 complex (Homo sapiens (Human), UniProt Q96SW2); assay: Cereblon Binding Assay (AlphaLISA Human Cereblon Binding Kit, competition); conditions: 10 μM top dose, biotin-labeled ligand competition; read-out: CRBN IC50
# Procedure: Cereblon binding was measured in vitro using an AlphaLISA® Human Cereblon Binding Kit (PerkinElmer, Waltham, MA) according to the manufacturer's protocol (“Alpha” refers to Amplified Luminescent Proximity Homogeneous Assay). In this assay, donor beads and acceptor beads come into proximity through ligand binding to CRBN protein. Excitation of the donor beads provokes the release of singlet oxygen that triggers a cascade of energy transfer reactions to the acceptor beads, resulting in a sharp peak in light emission at 615 nm.
# Specifically, nickel chelate acceptor beads (PerkinElmer AL108M) were used to capture a 6XHIS-tagged CRBN protein, and streptavidin-coated donor beads (PerkinElmer 6760002) were used to capture 50 nM biotinylated ligand. Each well included the following: sample or control; HIS-tagged CRBN protein; biotinylated ligand; nickel chelate acceptor beads; and streptavidin donor beads.
# Competition Assay: Test compounds in 100% dimethyl sulfoxide were plated onto white, low volume 384 well plates (PerkinElmer Proxiplate 384 plus # 6008289) using an Labcyte Echo acoustic dispenser, in an 11-point dose curve and 3-fold dilution scheme. […] Plates were incubated for 30 minutes at room temperature.
# Detection: 10 μL detection reagents were added in low light conditions containing nickel chelate acceptor beads and streptavidin donor beads (Perkin Elmer 6760002), resulting in a final concentration 20 ng/ml. Plates were incubated 1 hour and read on a PerkinElmerTM Envision™ plate reader (680 nm excitation and […] settings). The IC50 of each compound was determined by calculating percent inhibition from no drug and no protein controls, and the Ki of each compound was calculated using the Cheng-Prusoff transformation. From the IC50 values were determined. The IC50 values are reported in Table 2 in the CRBN IC50 (nM) column.
DC50 [1],IC50 [2],IC50 [3],Compound
4.21 nM,0.0986 nM,≥ 10000 nM,"COC[C@H]1CN(CCc2ccc(N3CCC(=O)NC3=O)cc2)CCN1c1ccc(Nc2cc(-c3ccc([C@@H](C)NC(=O)c4nc(C(C)(C)C)no4)c(C)c3)ncn2)nc1 [Example 15, 3-tert-butyl-N-[(1R)-1-{4-[6-({5-[(2R)-4-{2-[4-(2,4-dioxo-1,3-diazinan-1-yl)phenyl]ethyl}-2-(methoxymethyl)piperazin-1-yl]pyridin-2-yl}amino)pyrimidin-4-yl]-2-methylphenyl}ethyl]-1,2,4-oxadiazole-5-carboxamide]"
14.2 nM,0.438 nM,≥ 10000 nM,"C[C@@H](NC(=O)c1nc(C(C)(C)C)no1)c1ccc(-c2cc(Nc3ccc(N4CCN(CCc5ccc(N6CCC(=O)NC6=O)cc5)C[C@@H]4C)cn3)ncn2)cc1C(F)(F)F [Example 16, 3-tert-butyl-N-[(1R)-1-{4-[6-({5-[(2S)-4-{2-[4-(2,4-dioxo-1,3-diazinan-1-yl)phenyl]ethyl}-2-methylpiperazin-1-yl]pyridin-2-yl}amino)pyrimidin-4-yl]-2-(trifluoromethyl)phenyl}ethyl]-1,2,4-oxadiazole-5-carboxamide]"
4.13 nM,0.103 nM,3870 nM,"C[C@@H](NC(=O)c1nc(C(C)(C)C)no1)c1ccc(-c2cc(Nc3ccc(N4CCN(CCc5ccc(N6CCC(=O)NC6=O)cc5)C[C@@H]4C)cn3)ncn2)cc1F [Example 17, 3-tert-butyl-N-[(1R)-1-{4-[6-({5-[(2S)-4-{2-[4-(2,4-dioxo-1,3-diazinan-1-yl)phenyl]ethyl}-2-methylpiperazin-1-yl]pyridin-2-yl}amino)pyrimidin-4-yl]-2-fluorophenyl}ethyl]-1,2,4-oxadiazole-5-carboxamide]"
